Values belong to the compound of their own block, whether it stands above or below them.
Columns and labels:
Format in all cases: physicochemical
[1] = competitive slurry experiments (XRPD of remaining solids); conditions: 25 °C, 24 h
Protocol: Two different types of slurry experiments may be performed, i.e., competitive and noncompetitive slurry experiments. Competitive slurry experiments are performed by mixing excess amounts of non-solvated polymorphic forms together in different solvents and agitating the mixture isothermally. These types of slurry experiments may be used to determine which form is more thermodynamically stable (under the conditions tested).
When competitive slurry experiments are performed, the nucleation step is generally bypassed. Because the two (or more) forms placed into contact with the solvent have different solubilities, particles of the form with the lower solubility grow at the expense of the more soluble form. This occurs since the more soluble form is saturated, and the less soluble form is supersaturated.
(§1) In general, slurry experiments are performed by agitating approximately 0.01 g to 2.5 g of material in 0.5 mL to 50 mL of slurry solvent. Uniform agitation and temperature control are accomplished using, e.g., Reacti-Therm heating modules and small Teflon coated stir bars. The duration of the slurry experiments is often around 24 h (although in some cases the experiments may be continued for several weeks). At the end of the slurry experiment, remaining undissolved solids are collected by vacuum filtration. To avoid inducing any type of physical change, the solids are not subjected to additional drying before the XRPD analysis.
In addition to the pure solvent noncompetitive slurry experiments performed, three competitive slurry experiments in Table 8 are performed at room temperature. These slurry experiments are composed of an approximately 50/50 mixture of Form I and Form II solids. Three different solvents are used to perform the competitive slurry experiments: DCM, i-PrOAc and EtOAc.

[2] = non-competitive slurry experiments (XRPD of remaining solids); conditions: for Final Form (XRPD): 4 h
Protocol: In an alternative aspect of the present invention, solid forms of binodenoson may be suspended in a suitable solvent at a temperature of at least 10° C., preferably at a temperature ranging from about 25° C. to about 60° C. Under suitable conditions, a suspension/slurry results in which particles of solid are dispersed, and remain incompletely dissolved in the solvent. Preferably, the solids are maintained in a state of suspension by agitation, e.g., by shaking or stirring. The suspension/slurry is then kept at a temperature of 10° C. or higher, e.g., at a temperature ranging from about 25° C. to about 60° C., for a time sufficient to effect transformation of the starting solids into product crystals. The product crystals may then be isolated and dried using conventional methods in the art. In the presence of water, all crystal forms of binodenoson will convert to Form II hydrate.
Noncompetitive slurry experiments are useful for identifying solvent mediated conditions useful for converting one crystalline form to another. In these experiments, excess material of a single crystal form is mixed with a solvent under isothermal conditions. These experiments rely on differences in solubility of the different polymorphic forms. […] Essentially, when a polymorph is suspended in a suitable solvent, a saturated solution phase (eventually) results. The solution phase is saturated with respect to the polymorphic form dissolved.
The results of these experiments often depend on nucleation kinetics and the presence of impurities that may inhibit nuclei growth of other stable crystalline modifications.
as §1

[3] = drying of crystals, crystal form checked by XRPD
Protocol: Furthermore, TGA and ^1H-NMR indicate that Form I crystals may also contain approximately 4 wt-% of ethanol (FIG. 1A).
In accordance with the TG data, after a few minutes at 125° C. in the KF oven, most of the weight loss from ethanol and water is complete affording Form I crystals in an anhydrous form (FIG. 1B). […] A comparison of the calorimetric behavior of the anhydrous Form I crystals and the Form I crystals containing residual solvents (“undried”) is summarized in Table 1:
Form II crystal form may be obtained in a hydrated form or in an anhydrous form. For example, slow crystallization from lower alcohols such as MeOH and EtOH in the presence of residual water provides hydrated Form II crystals.

[4] = moisture sorption analysis; conditions: relative humidity of about 94%, 14 days, 25° C.
[5] = solubility studies in EtOH
Protocol: In the current set of results, Form I crystals readily transforms into Form II crystals in EtOAc at 60° C. for 4 h (experiment No. 7). […] Thus, Form I appears to convert to Form II, but really converts to Form II hydrate. […] Thus, in the presence of residual water, Form II is obtained in the isostructural hydrate form, whereas in a completely anhydrous system, Form I results.

- Final Form (XRPD) ([1]; experiment No. 11: DCM): II^b
- Final Form (XRPD) ([1]; experiment No. 12: i-PrOAc): II^b
- Final Form (XRPD) ([1]; experiment No. 13: EtOAc): II^b
Structure (SMILES): Nc1nc(NN=CC2CCCCC2)nc2c1ncn2[C@@H]1O[C@H](CO)C(O)C1O (stereo partly drawn) [Form I & II, 2-{2-[(cyclohexyl)methylene]-hydrazino}adenosine]

- Final Form (XRPD) ([2]; experiment No. 1: EtOAc, 40 °C): amorphous
- Final Form (XRPD) ([2]; experiment No. 2: EtOH, 40 °C): all dissolved
- Final Form (XRPD) ([2]; experiment No. 4: i-Pr2O, 40 °C): amorphous
- Final Form (XRPD) ([2]; experiment No. 5: MeOH, 40 °C): all dissolved
- Final Form (XRPD) ([2]; experiment No. 7: EtOAc, 60 °C): II^b
- change of crystalline form upon drying (XRPD) ([3]; drying under nitrogen, 125° C. in the KF oven): does not change significantly
- hygroscopicity [4]: non-hygroscopic
Structure (SMILES): Nc1nc(NN=CC2CCCCC2)nc2c1ncn2[C@@H]1O[C@H](CO)[C@@H](O)[C@H]1O [Form I, 2-{2-[(cyclohexyl)methylene]-hydrazino}adenosine]
- thermodynamic stability relative to Form II ([5]; when water is not present, from solubilities): thermodynamically more stable than Form II

- change of XRPD pattern upon drying ([3]; drying the hydrated crystals): does not change the XRPD pattern
- solubility of the isostructural hydrate ([5]; presence of residual water, deduced): lower solubility than that of Form I
Structure (SMILES): Nc1nc(NN=CC2CCCCC2)nc2c1ncn2[C@@H]1O[C@H](CO)[C@@H](O)[C@H]1O [Form II hydrate, 2-{2-[(cyclohexyl)methylene]-hydrazino}adenosine]

- solubility compared with Form I ([5]; anhydrous Forms I and II compared in EtOH): much higher solubility
Structure (SMILES): Nc1nc(NN=CC2CCCCC2)nc2c1ncn2[C@@H]1O[C@H](CO)[C@@H](O)[C@H]1O [Form II, 2-{2-[(cyclohexyl)methylene]-hydrazino}adenosine]
- behaviour during solubility studies ([5]; dry EtOH): completely dissolve and recrystallize as Form I

- stability relative to Form I ([2]; at 40° C., from experiment No. 6 (DCM slurry)): more stable than Form I
Structure (SMILES): Nc1nc(NN=CC2CCCCC2)nc2c1ncn2[C@@H]1O[C@H](CO)[C@@H](O)[C@H]1O [Form V, 2-{2-[(cyclohexyl)methylene]-hydrazino}adenosine]

- crystal form after moisture sorption analysis [4]: remains the same
- weight gain in moisture sorption analysis [4]: approximately 1.3%
Structure (SMILES): Nc1nc(NN=CC2CCCCC2)nc2c1ncn2[C@@H]1O[C@H](CO)[C@@H](O)[C@H]1O [anhydrous Form I, 2-{2-[(cyclohexyl)methylene]-hydrazino}adenosine]

From patent US20130136693A1, “Crystal Forms of 2--Adenosine” (King Pharmaceuticals Research and Development, Inc, priority 2008, published 2013)
